In PubChem BioAssay AID2060909 (Molecular Pharmacology Branch, DTP, NCI, 2025):
Values joined by “and” are separate entries in the source; they are usually repeats but may differ in a detail not shown here. Equal entries are not always repeated.

Tested on: 362531-283-R-J2-PDC complex spheroid viability
Experiment: Anticancer human tumor 362531-283-R-J2-PDC patient-derived colon adenocarcinoma cell line growth inhibition [RAS]
Conditions: for viability, T/C: stronger effect = lower value; active = viability on the fitted dose curve at most 10% of control; inactive = the rest
How it was run: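 Agents were tested in combination matrices in half-log decrements from a top concentration at or near clinical Cmax (10 microM if undetermined). Targets were multi-cell spheroids of tumour lines plus HUVEC and MSC stromal cells.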
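Also: spheroids exposed to the agents for 7 days before readout.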
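For viability, T/C in this document: luminescence viability as percent of DMSO vehicle control wells.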

CC(C)n1nc(-c2ccc3oc(N)nc3c2)c2c(N)ncnc21 + CCn1c(-c2cc(N3CCN(C)CC3)cnc2C(C)OC)c2c3cc(ccc31)-c1csc(n1)CC(NC(=O)C1CC1C)C(=O)N1CCCC(N1)C(=O)OCC(C)(C)C2
0.0413 µM: IC50 (curve of first compound, second compound 0.03 µM)
inactive: viability, T/C (second compound 0.000949 µM, first compound 0.000316 µM) 88.2% | viability, T/C (second compound 0.000949 µM, first compound 0.001 µM) 97.4% | viability, T/C (second compound 0.000949 µM, first compound 0.00316 µM) 98.9% | viability, T/C (second compound 0.000949 µM, first compound 0.01 µM) 106% | viability, T/C (second compound 0.000949 µM, first compound 0.0316 µM) 62.9% | viability, T/C (second compound 0.000949 µM, first compound 0.1 µM) 41.2% | viability, T/C (second compound 0.003 µM, first compound 0.000316 µM) 99.4% | viability, T/C (second compound 0.003 µM, first compound 0.001 µM) 102% | viability, T/C (second compound 0.003 µM, first compound 0.00316 µM) 102% | viability, T/C (second compound 0.003 µM, first compound 0.01 µM) 100% | viability, T/C (second compound 0.003 µM, first compound 0.0316 µM) 69.7% | viability, T/C (second compound 0.003 µM, first compound 0.1 µM) 40% | viability, T/C (second compound 0.00949 µM, first compound 0.000316 µM) 102% | viability, T/C (second compound 0.00949 µM, first compound 0.001 µM) 111% | viability, T/C (second compound 0.00949 µM, first compound 0.00316 µM) 93.6% | viability, T/C (second compound 0.00949 µM, first compound 0.01 µM) 94.7% | viability, T/C (second compound 0.00949 µM, first compound 0.0316 µM) 57.6% | viability, T/C (second compound 0.00949 µM, first compound 0.1 µM) 35.9% | viability, T/C (second compound 0.03 µM, first compound 0.000316 µM) 89.5% | viability, T/C (second compound 0.03 µM, first compound 0.001 µM) 86.5% | viability, T/C (second compound 0.03 µM, first compound 0.00316 µM) 89.6% | viability, T/C (second compound 0.03 µM, first compound 0.01 µM) 92% | viability, T/C (second compound 0.03 µM, first compound 0.0316 µM) 54% | viability, T/C (second compound 0.03 µM, first compound 0.1 µM) 36.8% | viability, T/C (second compound 0.0949 µM, first compound 0.000316 µM) 82.2% | viability, T/C (second compound 0.0949 µM, first compound 0.001 µM) 84.1% | viability, T/C (second compound 0.0949 µM, first compound 0.00316 µM) 77.1% | viability, T/C (second compound 0.0949 µM, first compound 0.01 µM) 63.1% | viability, T/C (second compound 0.0949 µM, first compound 0.0316 µM) 39% | viability, T/C (second compound 0.0949 µM, first compound 0.1 µM) 35% | viability, T/C (second compound 0.3 µM, first compound 0.000316 µM) 41.6% | viability, T/C (second compound 0.3 µM, first compound 0.001 µM) 45.7% | viability, T/C (second compound 0.3 µM, first compound 0.00316 µM) 37% | viability, T/C (second compound 0.3 µM, first compound 0.01 µM) 21.1% | viability, T/C (second compound 0.3 µM, first compound 0.0316 µM) 21.8% | viability, T/C (second compound 0.3 µM, first compound 0.1 µM) 17.1%
0.0679 µM: IC50 (curve of first compound, second compound 0.003 µM)
0.0188 µM: IC50 (curve of first compound, second compound 0.0949 µM)
< 0.000316 µM: IC50 (curve of first compound, second compound 0.3 µM)
0.0481 µM: IC50 (curve of first compound, second compound 0.00949 µM)
0.0627 µM: IC50 (curve of first compound, second compound 0.000949 µM)

CC1(O)CCCC1n1c(=O)c(C(F)F)cc2cnc(NC3CCN(S(C)(=O)=O)CC3)nc21 (configuration not stated)
> 10 µM and 9.27 µM and 6.01 µM: IC50 (curve of compound)
inactive: viability, T/C (compound 0.0316 µM) 103% (2×) and 94% and 97.4% | viability, T/C (compound 0.1 µM) 104% [middle of 4 runs] | viability, T/C (compound 0.316 µM) 89.9% [middle of 4 runs] | viability, T/C (compound 3.16 µM) 68.3% [middle of 4 runs]
